# Measurements as given in PMC6478823, “A suite of phenotypic assays to ensure pipeline diversity when prioritizing drug-like Cryptosporidium growth inhibitors” (Nature Communications, 2019).
# pEC50: −log10 of the molar value. Where “and” joins values, the source holds several entries; their conditions need not be identical. Identical values can stand only once. Like-named read-outs stand apart in the source and are kept apart here.
# How the values were obtained:
# [1] = tested on: C. parvum; assay: 48 h Cryptosporidium growth inhibition assay; assay type: cell-based, Cryptosporidium parvum; conditions: for EC90: compound added 3 h post-infection, read at 48 h; for 0 - 48 h V. villosa lectin (asexual): Mean % Inhibition (parasites): replicates 1-2
# Description: As a first step in developing specific Cryptosporidium mode of action assays, we conducted a series of light microscopy time-lapse and transmission electron microscopy (TEM) time course experiments in order to precisely define C. parvum development within the HCT-8 cell culture system. […] This synchronicity was exploited by modifying a previously developed high-content microscopy assay. These assay modifications enabled the evaluation of several key events within the life cycle: host cell invasion, intracellular replication, host cell egress and establishment of new parasitophorous vacuoles, and sexual differentiation. […] Since the methods all used automated liquid handling, imaging, and image analysis, the assay methods all incorporated nuclear staining to monitor host cell numbers and enable recognition of HCT-8 cell monolayer damage, for example as an artifact from a malfunctioning plate washer or from unanticipated cytotoxicity of the compounds.
# Human ileocecal adenocarcinoma (HCT-8) cells were purchased from ATCC (catalog# CCL-244) and cultured in ATCC modified RPMI-1640 medium (Gibco, catalog# A10491–01), supplemented with 10% heat-inactivated fetal bovine serum (Sigma-Aldrich, catalog# 12306C) and 120 U/mL penicillin and 120 μg/mL streptomycin (Gibco, catalog# 15140-122) (culture media). […] For all experiments, HCT-8 cells between passages 9 and 39 were used. C. parvum (Iowa isolate) oocysts were purchased from Bunchgrass Farm (Deary, ID), stored at 4 °C and used within 5 months of collection from an infected calf. To induce excystation, oocysts were first treated with 10 mM hydrochloric acid for 10 min at 37 °C, spun at 14,000×g for 4.5 min at room temperature, treated with 2 mM sodium taurocholate for 10 min at 16 °C, spun as before, and resuspended in culture media for infection.
# A modification of a previously reported immunofluorescence assay was used to determine the EC50 and EC90 of compounds[13]. HCT-8 cells were grown to ≥ 90% confluence in 384-well plates (Corning, catalog# 353962) and infected with 5500 oocysts per well after they were induced for excystation as described above. Different concentrations of compounds were added 3 h post-infection and plates were incubated for another 45 h in a 5% CO2 incubator at 37 °C. Wells were then washed 3 times with PBS containing 111 mM D-galactose (PBS-D-gal), fixed with 4% paraformaldehyde (PFA) in PBS for 15 min at room temperature, permeabilized with 0.25% Triton X-100 for 10 min at 37 °C, washed 3 times with PBS with 0.1% Tween 20, and blocked with 4% bovine serum albumin (BSA) in PBS for 2 h at 37 °C or 4 °C overnight. Parasitophorous vacuoles were stained with 1.33 µg/mL of fluorescein-labeled Vicia villosa lectin (Vector Laboratories, catalog# FL-1231) diluted in 1% BSA in PBS with 0.1% Tween 20 for 1 h at 37 °C, followed by addition of Hoechst 33258 (AnaSpec, catalog# AS-83219) at 0.09 mM diluted in water for another 15 min at 37 °C. Wells were then washed 5 times with PBS containing 0.1% Tween 20. A Nikon Eclipse Ti2000 epifluorescence microscope with an automated stage was programmed using NIS-Elements Advanced Research software (Nikon, USA) to focus on the center of each well and take a 3 × 3 or 6 × 6 composite image using an EXi blue fluorescence microscopy camera (QImaging, Canada) with a 20 × objective (NA = 0.45). Nuclei and parasite images were separately exported as.tif files and analyzed using macros developed on the ImageJ platform (National Institutes of Health)[13].
# [2] = tested on: C. parvum; assay: Egress, motility, reinvasion assay (PV ratio); conditions: compound at EC90; for Egress and Reinvasion Assay: Mean PV ratios (19.5h:6h), Average: average of replicates; for Egress and Reinvasion Assay: Mean PV ratios (19.5h:6h), Replicate 1a: single replicate 1; for Egress and Reinvasion Assay: Mean PV ratios (19.5h:6h), Replicate 2a: single replicate 2; for Egress and Reinvasion Assay: Mean PV ratios (19.5h:6h), Replicate 3a: single replicate 3; for Egress and Reinvasion Assay: Mean PV ratios (19.5h:6h), Replicate 4a: single replicate 4; for Egress and Reinvasion Assay: Mean PV ratios (19.5h:6h), Replicate 5a: single replicate 5
# Description: For quantification of parasitophorous vacuoles over time, HCT-8 cells were grown to greater than 90% confluence in 384-well plates and infected with 11,000 oocysts after triggering excystation.
# [3] = read-out: Regular 3 to 48 h assay in vitro EC90, C. parvum in HCT-8 cells
# [4] = Cryptosporidium parvum, HCT-8, read-out: Regular 3 to 48 h assay in vitro EC90, C. parvum in HCT-8 cells
Compound,"EC90 [1, 3]","Egress and Reinvasion Assay: Mean PV ratios (19.5h:6h), Average [2]","Egress and Reinvasion Assay: Mean PV ratios (19.5h:6h), Replicate 1a [2]","Egress and Reinvasion Assay: Mean PV ratios (19.5h:6h), Replicate 2a [2]","Egress and Reinvasion Assay: Mean PV ratios (19.5h:6h), Replicate 3a [2]","Egress and Reinvasion Assay: Mean PV ratios (19.5h:6h), Replicate 4a [2]",also measured
CCOc1ccc2cc(-c3nn(CC4CCN(C)CC4)c4ncnc(N)c34)ccc2n1 [BKI-1369],17.7 µM,1.41,1.20,1.62,,,
Cc1cn(-c2cc(NC(=O)c3ccc(C)c(Nc4nccc(-c5cccnc5)n4)c3)cc(C(F)(F)F)c2)cn1 [Nilotinib],,1.05,1.50,1.54,0.60,0.54,"EC90 ([1]; Cryptosporidium parvum, read-out: Regular 3 to 48 h assay in vitro EC90, C. parvum in HCT-8 cells): 16.5 µM"
Cc1cc(/C=C/c2ccc3cc(N(C)C)ccc3[n+]2C)c(C)n1-c1ccccc1 [Pyrvinium pamoate],,0.61,0.97,0.85,0.33,0.30,"EC90 [1, 4]: 3.21 µM"
CSc1ccccc1C(=O)Nc1nc(-c2ccccn2)cs1 [MMV001246],5.39 µM,0.43,0.60,0.25,,,
c1ccc(CNc2nc(NCc3ccccc3)c3ccccc3n2)cc1 [B-23],10.8 µM,1.55,1.73,1.36,,,
CC(C)c1c(C(=O)Nc2ccccc2)c(-c2ccccc2)c(-c2ccc(F)cc2)n1CC[C@@H](O)C[C@@H](O)CC(=O)O [Atorvastatin],,1.88,1.94,1.82,,,"EC90 [1, 4]: 2.18 µM"
C[C@H]1CCC[C@H](C[C@H]2Cc3cc(O)cc(O)c3C(=O)O2)O1 [Cladosporin],,0.68,0.52,0.83,,,"EC90 [1, 4]: 0.49 µM"
COc1ccc(NC(=O)N2CCCCN3C(CN(C)C)C(c4ccc(C#Cc5ccccc5)cc4)C3C2)cc1 (stereo not shown) [BRD7929],0.15 µM,0.72,0.46,0.99,0.98,0.41,"Egress and Reinvasion Assay: Mean PV ratios (19.5h:6h), Replicate 5a [2]: 0.78"
CN(C)c1ccc(C(=C2C=CC(=[N+](C)C)C=C2)c2ccc(N(C)C)cc2)cc1 [Gentian Violet],1.05 µM,1.37,1.01,1.73,,,
[H]/N=C(/NCCCCC)N/N=C/c1c[nH]c2ccc(OC)cc12 [Tegaserod],,1.01,0.96,1.06,,,"EC90 [1, 4]: 10.3 µM"
c1ccc(CNc2nc(Nc3ccccc3)nc3ccccc23)cc1 [B-1],2.27 µM,1.58,1.28,1.59,1.80,1.65,"0 - 48 h V. villosa lectin (asexual): Mean % Inhibition (parasites) ([1]; B-1 at log[MMV006169] (µM) 0.22): 61.21% and 81.70%; 0 - 48 h V. villosa lectin (asexual): Mean % Inhibition (parasites) ([1]; B-1 at log[MMV006169] (µM) 0.52): 87.47% and 92.32%; 0 - 48 h V. villosa lectin (asexual): Mean % Inhibition (parasites) ([1]; B-1 at log[MMV006169] (µM) 0.82): 91.12% and 90.37%; 0 - 48 h V. villosa lectin (asexual): Mean % Inhibition (parasites) ([1]; B-1 at log[MMV006169] (µM) 1.00): 88.49% and 90.28%; 0 - 48 h V. villosa lectin (asexual): Mean % Inhibition (parasites) ([1]; B-1 at log[MMV006169] (µM) -0.18): 5.34% and 39.84%; 0 - 48 h V. villosa lectin (asexual): Mean % Inhibition (parasites) ([1]; B-1 at log[MMV006169] (µM) -0.65): -11.45% and 6.00%; 0 - 48 h V. villosa lectin (asexual): Mean % Inhibition (parasites) ([1]; B-1 at log[MMV006169] (µM) -1.13): -7.55% and -4.41%; 0 - 48 h V. villosa lectin (asexual): Mean % Inhibition (parasites) ([1]; B-1 at log[MMV006169] (µM) -1.61): -3.87% and -15.36%; 0 - 48 h V. villosa lectin (asexual): Mean % Inhibition (parasites) ([1]; B-1 at log[MMV006169] (µM) -2.08): -14.75% and -13.18%; pEC50 ([1]; read-out: 0 − 48 h V. villosa lectin (asexual): EC50, asexual growth assay, first 48 h, range in brackets): 6.00"
Cc1cccc(-n2ncc3c(=O)[nH]c(-n4nc(C)cc4NC(=O)C4CCCC4)nc32)c1 [C-5],4.99 µM,0.31,0.20,0.42,,,
O=C(Nc1nc(-c2ccccn2)cs1)c1ccccc1Br [MMV665909],6.84 µM,0.41,0.61,0.21,,,
Cc1cccc(-n2ncc3c(O)nc(-n4nc(C)cc4NC(=O)c4cc5ccccc5o4)nc32)c1 [C-1],0.65 µM,0.80,0.80,1.08,0.56,0.76,
O=C(NC(c1ccccc1)c1ccc2cccnc2c1O)c1ccccc1 (stereo not shown) [A-5],4.35 µM,0.32,0.55,0.10,,,
CN(C)S(=O)(=O)c1ccc(C(=O)N2CCN(c3ccc4nncn4n3)CC2)cc1 [D-44],11.6 µM,2.21,2.22,2.32,1.73,2.75,"Egress and Reinvasion Assay: Mean PV ratios (19.5h:6h), Replicate 5a [2]: 1.96; Egress and Reinvasion Assay: Mean PV ratios (19.5h:6h), Replicate 6a ([2]; single replicate 6): 2.29"
COc1ccc(Nc2nc(NCc3ccccc3Cl)c3ccccc3n2)cc1Cl [B-13],1.39 µM,1.42,1.37,1.48,,,
O=C(CC1NCCCC1O)Cn1cnc2cc(Br)c(Cl)cc2c1=O (stereo not shown) [Halofuginone],,0.69,0.76,1.01,0.53,0.46,"EC90 [1, 4]: 0.34 µM"
c1ccc(CNc2nc(NC3CCCC3)nc3ccccc23)cc1 [B-5],7.22 µM,1.49,1.74,1.24,,,
